In ChEMBL document CHEMBL1157707, “Lead optimization of N-3-substituted 7-morpholinotriazolopyrimidines as dual phosphoinositide 3-kinase/mammalian target of rapamycin inhibitors: discovery of PKI-402” (J Med Chem, 2010):
Values after ≈ are worked out from the molar mass of the structure shown. Active and inactive are the calls of the source. The rule behind the calls is not given here.

Tests used:
[1] = target: Serine/threonine-protein kinase mTOR (Homo sapiens, UniProt P42345); assay: Inhibition of mTOR by DELFIA
[2] = Metabolic stability in human liver microsomes assessed as half life; format: ADME, Microsome
[3] = Metabolic stability in mouse liver microsomes assessed as half life; format: ADME, Microsome
MDA-MB-361 = assay: cells; settings: Homo sapiens, MDA-MB-361, 72 h
PC-3 = assay: cells; settings: Homo sapiens, PC-3, 72 h
cells = settings: Homo sapiens, MDA-MB-361, 4 h
in vitro = settings: rat
[4] = Solubility at pH 7.4; format: physicochemical; settings: buffer
[5] = target: Phosphatidylinositol 4,5-bisphosphate 3-kinase catalytic subunit gamma isoform (Homo sapiens, UniProt P48736); assay: Inhibition of human PI3Kgamma by fluorescence polarization format assay
[6] = Solubility at pH 3; format: physicochemical; settings: buffer
Mus musculus [7] = assay: Antitumor activity against human MDA-MB-361 cells implanted in mouse assessed as suppression of Akt T308 phosphorylation at 50 mg/kg, iv; format: functional, organism-based; set-up: dose 50 mg/kg
Mus musculus [8] = assay: Antitumor activity against human MDA-MB-361 cells implanted in mouse assessed as suppression of Akt S473 phosphorylation at 50 mg/kg, iv; format: functional, organism-based; set-up: dose 50 mg/kg
Mus musculus [9] = assay: Antitumor activity against human MDA-MB-361 cells implanted in mouse assessed as suppression of P70S6K phosphorylation at 50 mg/kg, iv; format: functional, organism-based; set-up: dose 50 mg/kg
Mus musculus [10] = assay: Antitumor activity against human MDA-MB-361 cells implanted in mouse assessed as suppression of S6 phosphorylation at 50 mg/kg, iv; format: functional, organism-based; set-up: dose 50 mg/kg
Mus musculus [11] = assay: Plasma concentration in human MDA-MB-361 cells implanted mouse at 50 mg/kg, iv; format: ADME, organism-based; set-up: dose 50 mg/kg, route intravenous; settings: in vivo
[12] = Drug level in human MDA-MB-361 cells implanted mouse tumor at 50 mg/kg, iv; format: ADME, organism-based, Neoplasm; set-up: dose 50 mg/kg, route intravenous; settings: in vivo
[13] = target: Phosphatidylinositol 4,5-bisphosphate 3-kinase catalytic subunit alpha isoform (Homo sapiens, UniProt P42336)
Chain of Phosphatidylinositol 4,5-bisphosphate 3-kinase catalytic subunit alpha isoform (P42336 whole entry, canonical isoform): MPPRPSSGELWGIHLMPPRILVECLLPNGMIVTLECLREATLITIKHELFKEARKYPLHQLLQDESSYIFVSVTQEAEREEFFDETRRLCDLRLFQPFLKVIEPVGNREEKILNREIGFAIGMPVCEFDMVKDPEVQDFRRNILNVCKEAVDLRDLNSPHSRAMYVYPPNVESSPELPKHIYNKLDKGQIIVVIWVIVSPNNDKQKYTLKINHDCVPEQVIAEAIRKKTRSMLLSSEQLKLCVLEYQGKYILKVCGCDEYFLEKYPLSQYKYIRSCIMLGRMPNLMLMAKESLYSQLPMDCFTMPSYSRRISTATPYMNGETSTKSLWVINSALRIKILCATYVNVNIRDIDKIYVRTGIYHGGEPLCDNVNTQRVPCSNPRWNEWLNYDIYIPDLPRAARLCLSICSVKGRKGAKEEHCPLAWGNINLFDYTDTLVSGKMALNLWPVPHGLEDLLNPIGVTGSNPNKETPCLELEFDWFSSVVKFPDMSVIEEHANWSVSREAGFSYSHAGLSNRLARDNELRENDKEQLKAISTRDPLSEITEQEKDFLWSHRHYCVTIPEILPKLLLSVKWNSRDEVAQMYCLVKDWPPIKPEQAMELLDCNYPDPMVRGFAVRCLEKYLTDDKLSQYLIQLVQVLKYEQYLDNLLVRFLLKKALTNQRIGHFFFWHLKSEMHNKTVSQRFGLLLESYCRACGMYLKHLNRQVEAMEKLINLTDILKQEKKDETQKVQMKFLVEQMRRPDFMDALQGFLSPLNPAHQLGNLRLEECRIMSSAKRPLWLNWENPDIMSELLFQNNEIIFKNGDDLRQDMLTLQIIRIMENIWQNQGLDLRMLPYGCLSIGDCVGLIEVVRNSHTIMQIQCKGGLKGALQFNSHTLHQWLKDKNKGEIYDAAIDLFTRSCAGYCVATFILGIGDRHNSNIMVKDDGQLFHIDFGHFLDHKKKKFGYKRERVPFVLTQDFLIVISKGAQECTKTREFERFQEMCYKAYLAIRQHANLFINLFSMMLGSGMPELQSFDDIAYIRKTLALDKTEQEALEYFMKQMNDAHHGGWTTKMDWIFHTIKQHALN

Chain of Phosphatidylinositol 4,5-bisphosphate 3-kinase catalytic subunit gamma isoform (P48736 whole entry, canonical isoform): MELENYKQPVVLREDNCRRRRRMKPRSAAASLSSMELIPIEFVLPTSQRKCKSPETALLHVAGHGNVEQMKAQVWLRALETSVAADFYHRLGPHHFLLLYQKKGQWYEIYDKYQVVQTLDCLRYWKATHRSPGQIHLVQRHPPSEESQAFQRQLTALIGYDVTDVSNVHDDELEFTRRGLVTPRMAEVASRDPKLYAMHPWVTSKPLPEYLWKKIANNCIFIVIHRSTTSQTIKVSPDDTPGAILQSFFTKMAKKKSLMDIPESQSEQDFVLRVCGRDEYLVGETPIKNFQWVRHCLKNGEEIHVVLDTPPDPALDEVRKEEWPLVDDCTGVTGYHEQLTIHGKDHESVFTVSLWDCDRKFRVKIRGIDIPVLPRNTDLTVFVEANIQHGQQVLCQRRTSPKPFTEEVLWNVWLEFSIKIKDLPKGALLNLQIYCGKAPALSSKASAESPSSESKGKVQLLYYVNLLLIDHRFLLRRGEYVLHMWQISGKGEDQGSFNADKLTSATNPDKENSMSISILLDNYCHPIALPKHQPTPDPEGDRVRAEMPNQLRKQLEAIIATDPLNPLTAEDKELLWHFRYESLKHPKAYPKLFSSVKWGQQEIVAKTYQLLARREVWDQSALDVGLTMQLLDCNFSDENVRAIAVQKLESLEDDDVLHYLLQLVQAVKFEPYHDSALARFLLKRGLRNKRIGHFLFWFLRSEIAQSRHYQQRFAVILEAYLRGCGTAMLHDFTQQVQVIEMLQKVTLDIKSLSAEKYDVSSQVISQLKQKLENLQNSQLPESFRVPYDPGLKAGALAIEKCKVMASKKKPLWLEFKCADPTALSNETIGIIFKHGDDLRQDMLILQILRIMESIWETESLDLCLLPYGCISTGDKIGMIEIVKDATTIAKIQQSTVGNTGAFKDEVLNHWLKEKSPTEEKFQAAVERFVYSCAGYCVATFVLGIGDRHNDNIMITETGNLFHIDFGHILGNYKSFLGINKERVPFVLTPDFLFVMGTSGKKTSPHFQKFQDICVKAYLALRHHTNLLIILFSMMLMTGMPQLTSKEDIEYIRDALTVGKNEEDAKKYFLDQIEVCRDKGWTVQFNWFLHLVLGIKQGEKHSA

| IC50 [1] | IC50 (MDA-MB-361) | IC50 (PC-3) | half-life (in vitro; liver microsomes) | solubility [4] | Compound | also measured |
| --- | --- | --- | --- | --- | --- | --- |
| 0.634 µM | – | – | – | – | OCc1cccc(-c2nc(N3CCOCC3)c3ncn(C4CCN(Cc5ccccc5)CC4)c3n2)c1 | – |
| 0.0027 µM | 0.068 µM | 0.096 µM | 21 min | – | CCCCNC(=O)c1ccc(NC(=O)Nc2ccc(-c3nc(N4CCOCC4)c4nnn(CC)c4n3)cc2)cc1 | half-life [2]: > 30 min; half-life [3]: 27 min; IC50 (cells): 0.047 µM |
| 0.0037 µM | 0.184 µM | 0.366 µM | 9 min | 2 µg/mL (≈ 4.58 µM) | Cn1nnc2c(N3CCOCC3)nc(-c3ccc(NC(=O)Nc4cccs4)cc3)nc21 | – |
| 0.00295 µM | 0.198 µM | 0.281 µM | – | 1 µg/mL (≈ 2.32 µM) | Cn1nnc2c(N3CCOCC3)nc(-c3ccc(NC(=O)Nc4cccnc4)cc3)nc21 | half-life (in vitro; microsomes): 12 min |
| 0.25 µM | – | 0.393 µM | – | – | OCc1cccc(-c2nc(N3CCOCC3)c3nnn(C4CCN(Cc5ccccc5)CC4)c3n2)c1 | – |
| 0.0016 µM | 0.084 µM | 0.171 µM | 7 min | – | CC(C)n1nnc2c(N3CCOCC3)nc(-c3ccc(NC(=O)Nc4ccc(N(C)C)cc4)cc3)nc21 | – |
| 0.021 µM | 0.196 µM | 0.252 µM | 11 min | 3 µg/mL (≈ 6.53 µM) | CCn1nnc2c(N3CCOCC3)nc(-c3ccc(NC(=O)Nc4ccnc(C)c4)cc3)nc21 | – |
| 0.00057 µM | 0.039 µM | 0.091 µM | 24 min | 1 µg/mL (≈ 2.18 µM) | CC(C)n1nnc2c(N3CCOCC3)nc(-c3ccc(NC(=O)Nc4cccnc4)cc3)nc21 | – |
| 0.00255 µM | 0.199 µM | 0.285 µM | 15 min | – | CCn1nnc2c(N3CCOCC3)nc(-c3ccc(NC(=O)Nc4ccc(C(=O)OC)cc4)cc3)nc21 | – |
| 0.00035 µM | 0.047 µM | 0.11 µM | 25 min | 1 µg/mL (≈ 1.84 µM) | CC(C)n1nnc2c(N3CCOCC3)nc(-c3ccc(NC(=O)Nc4ccc(N5CCOCC5)cc4)cc3)nc21 | – |
| 0.0005 µM | 0.013 µM | 0.052 µM | – | > 100 µg/mL | CCn1nnc2c(N3CCOCC3)nc(-c3ccc(NC(=O)Nc4ccc(C(=O)NCCN(C)C)cc4)cc3)nc21 | IC50 [5]: 0.012 µM; solubility [6]: > 100 µg/mL; half-life [2]: > 30 min; half-life [3]: 28 min; Activity (Mus musculus [7]): Active; Activity (Mus musculus [8]): Active; Activity (Mus musculus [9]): Active; Activity (Mus musculus [10]): Active; Cp (Mus musculus [11]): 1229 ng/mL; Drug uptake [12]: 2130 ng/mL; IC50 (cells): 0.016 µM; half-life (in vitro; microsomes): 29 min |
| 0.00121 µM | 0.036 µM | 0.088 µM | 23 min | 1 µg/mL (≈ 1.69 µM) | CCn1nnc2c(N3CCOCC3)nc(-c3ccc(NC(=O)Nc4ccc(C(=O)NCCc5ccccn5)cc4)cc3)nc21 | IC50 [5]: 0.022 µM; solubility [6]: 4 µg/mL (≈ 6.75 µM); half-life [2]: 16 min; half-life [3]: 19 min; IC50 [13]: 0.0068 µM; IC50 (cells): 0.065 µM |

| Compound | IC50 [1] | IC50 (MDA-MB-361) | IC50 (PC-3) | half-life (in vitro; liver microsomes) | solubility [4] | also measured |
| --- | --- | --- | --- | --- | --- | --- |
| CCn1nnc2c(N3CCOCC3)nc(-c3ccc(NC(=O)Nc4cccnc4)cc3)nc21 | 0.00089 µM | – | – | – | – | – |
